Results reported in US20250206730A1 (AUTOTELIC BIO INC., priority 2022, published 2025).

Key:
ALK5 kinase = target: T1, ALK5 kinase (Homo sapiens, UniProt P36897); test: LanthaScreen Eu Kinase Binding Assay; settings: Kinase Tracer 178, Eu-anti-GST Antibody, read-out: IC50 Enzyme
T1 sequence (P36897 34-503): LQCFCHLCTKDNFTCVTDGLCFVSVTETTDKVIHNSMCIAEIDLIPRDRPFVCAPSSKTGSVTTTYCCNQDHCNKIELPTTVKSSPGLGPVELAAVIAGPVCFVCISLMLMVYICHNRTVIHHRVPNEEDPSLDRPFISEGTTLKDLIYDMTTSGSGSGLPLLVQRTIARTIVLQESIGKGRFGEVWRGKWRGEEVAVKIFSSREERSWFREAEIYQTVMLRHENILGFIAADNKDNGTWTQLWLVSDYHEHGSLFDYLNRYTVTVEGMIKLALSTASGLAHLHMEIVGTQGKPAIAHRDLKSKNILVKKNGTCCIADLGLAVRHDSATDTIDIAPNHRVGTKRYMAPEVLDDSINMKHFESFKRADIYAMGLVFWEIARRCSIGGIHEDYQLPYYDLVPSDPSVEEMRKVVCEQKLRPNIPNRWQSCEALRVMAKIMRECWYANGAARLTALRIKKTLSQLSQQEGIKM
Experimental: [Example 1] LanthaScreen Eu Kinase Binding Assay
4 μL of 4× Test Compound in 4% DMSO and 4 μL of 4× Kinase in Kinase buffer were added to wells (low volume, white 384-well plate (Greiner Cat. #784207)). The plate was shaken for 30 seconds, centrifuged for 10 seconds at 1000 rpm, and incubated at RT for 30 minutes. Then, 4 μL of 4× Eu-anti-GST Antibody and 4 μL of 4× Kinase Tracer 178 were added to the wells. The plate was shaken for 30 seconds, centrifuged for 10 seconds at 1000 rpm, and incubated at RT for 60 minutes. Fluorescence was measured by a plate reader, Biotek Synergy H1 (Vermont, USA) under the following conditions. • Excitation: 340 nm (3 nm bandpass) • Kinase tracer emission: 665 nm (10 nm bandpass) • Eu Ab emission: 615 nm (10 nm bandpass) • Emission ratio=665 nm (tracer)/615 nm (Eu Ab) • The higher the binding affinity of compound to ALK5 kinase is, the less the emission ratio is.

TGF-β signaling = test: Assay for evaluating cellular inhibition of TGF-β signaling, 4T1 (SBE-luc2P) luciferase reporter; assay type: cell-based; settings: Mus musculus, 4T1, 4T1 (SBE-luc2P) transient pool, 0.2% FBS, 2 h pre-treatment, TGF-β1 2 ng/mL 24 h; read-out: IC50 4T1 Cell
Experimental: [Example 2] Assay for Evaluating Cellular Inhibition of TGF-β Signaling
4T1 (SBE-luc2P) transient pool that have SBE-luc2P (hygro) expression plasmid or HEK293 (SBE reporter) stable cells (BPS bioscience) were seeded at 6×10^3 cells/well or 2.5×10^4 cells/well in 96-well plate, respectively. 4T1 (SBE-luc2P) transient pool were pre-treated with novel compound synthesized in Example 1 above in 0.2% FBS at approximately 60% confluence at 37° C. in 5% CO2. Also, HEK293 (SBE reporter) stable cells were pre-treated with each test compounds of formula in 0.5% FBS at approximately 80% confluence at 37° C. in 5% CO2. After 2 hours, cells were treated with TGF-β1 (2 ng/mL) for 24 h at 37° C. in 5% CO2. Cell lysates were prepared using Luciferase Assay (Promega) according to the manufacturer's instruction, and luminescence was measured by a plate reader, Biotek Synergy H1 (Vermont, USA).

Compound	IC50 (ALK5 kinase) [nM]	IC50 (TGF-β signaling) [nM]
Nc1nc(-c2ccccc2)c(Oc2ccnc(Nc3cccc(S(N)(=O)=O)c3)c2)s1 [A-1, 3-((4-((2-Amino-4-phenylthiazol-5-yl)oxy)pyridin-2-yl)amino)benzenesulfonamide]	< 100	< 100
NC(=O)c1cccc(Nc2cc(Oc3sc(N)nc3-c3ccccc3)ccn2)c1 [A-2, 3-((4-((2-Amino-4-phenylthiazol-5-yl)oxy)pyridin-2-yl)amino)benzamide]	< 100	< 100
COC(=O)c1cccc(Nc2cc(Oc3sc(N)nc3-c3ccccc3)ccn2)c1 [A-3, Methyl 3-((4-((2-amino-4-phenylthiazol-5-yl)oxy)pyridin-2-yl)amino)benzoate]	< 100	> 100
Nc1nc(-c2ccccc2)c(Oc2ccnc(Nc3ccc(S(N)(=O)=O)cc3)c2)s1 [A-4, 4-((4-((2-Amino-4-phenylthiazol-5-yl)oxy)pyridin-2-yl)amino)benzenesulfonamide]	< 100	> 100
NC(=O)c1ccc(Nc2cc(Oc3sc(N)nc3-c3ccccc3)ccn2)cc1 [A-5, 4-((4-((2-Amino-4-phenylthiazol-5-yl)oxy)pyridin-2-yl)amino)benzamide]	< 100	> 100
NC(=O)c1ccc(Nc2cc(Oc3sc(N)nc3-c3ccccc3)ccn2)nc1 [A-9, 6-((4-((2-Amino-4-phenylthiazol-5-yl)oxy)pyridin-2-yl)amino)nicotinamide]	< 100	< 100
CN(C)C(=O)c1cccc(Nc2cc(Oc3sc(N)nc3-c3ccccc3)ccn2)c1 [A-10, 3-((4-((2-Amino-4-phenylthiazol-5-yl)oxy)pyridin-2-yl)amino)-N,N-dimethylbenzamide]	< 100	> 100
CS(=O)(=O)Nc1cccc(Nc2cc(Oc3sc(N)nc3-c3ccccc3)ccn2)c1 [A-14, N-(3-((4-((2-Amino-4-phenylthiazol-5-yl)oxy)pyridin-2-yl)amino)phenyl)methanesulfonamide]	< 100	< 100
Nc1nc(-c2ccccc2)c(Oc2ccnc(Nc3ccc(C(=O)O)cc3)c2)s1 [A-39, 4-((4-((2-Amino-4-phenylthiazol-5-yl)oxy)pyridin-2-yl)amino)benzoic acid]	< 100	> 100
Nc1nc(-c2ccccc2)c(Oc2ccnc(Nc3cccc(C(=O)O)c3)c2)s1 [A-40, 3-((4-((2-Amino-4-phenylthiazol-5-yl)oxy)pyridin-2-yl)amino)benzoic acid]	< 100	> 100
CC(C)(O)c1cccc(Nc2cc(Oc3sc(N)nc3-c3ccccc3)ccn2)c1 [A-41, 2-(3-((4-((2-Amino-4-phenylthiazol-5-yl)oxy)pyridin-2-yl)amino)phenyl)propan-2-ol]	< 100	> 100
CC(C)(O)c1cc(Nc2cc(Oc3sc(N)nc3-c3ccccc3)ccn2)ccn1 [A-42, 2-(4-((4-((2-Amino-4-phenylthiazol-5-yl)oxy)pyridin-2-yl)amino)pyridin-2-yl)propan-2-ol]	< 100	> 100
CC(C)(O)c1ccc(Nc2cc(Oc3sc(N)nc3-c3ccccc3)ccn2)cn1 [A-43, 2-(5-((4-((2-Amino-4-phenylthiazol-5-yl)oxy)pyridin-2-yl)amino)pyridin-2-yl)propan-2-ol]	< 100	> 100
CC(C)(O)c1cccc(Nc2cc(Oc3sc(NC4CC4)nc3-c3ccccc3)ccn2)c1 [A-44, 2-(3-((4-((2-(Cyclopropylamino)-4-phenylthiazol-5-yl)oxy)pyridin-2-yl)amino)phenyl)propan-2-ol]	< 100	> 100
NS(=O)(=O)c1cccc(Nc2cc(Oc3sc(NC4CC4)nc3-c3ccccc3)ccn2)c1 [A-45, 3-((4-((2-(Cyclopropylamino)-4-phenylthiazol-5-yl)oxy)pyridin-2-yl)amino)benzenesulfonamide]	< 100	> 100
NC(=O)c1ccc(Nc2cc(Oc3sc(NC4CC4)nc3-c3ccccc3)ccn2)cc1 [A-47, 4-((4-((2-(Cyclopropylamino)-4-phenylthiazol-5-yl)oxy)pyridin-2-yl)amino)benzamide]	> 100	> 100
O=C(O)c1cccc(Nc2cc(Oc3sc(NC4CC4)nc3-c3ccccc3)ccn2)c1 [A-48, 3-((4-((2-(Cyclopropylamino)-4-phenylthiazol-5-yl)oxy)pyridin-2-yl)amino)benzoic acid]	< 100	> 100
O=C(O)c1ccc(Nc2cc(Oc3sc(NC4CC4)nc3-c3ccccc3)ccn2)cc1 [A-49, 4-((4-((2-(Cyclopropylamino)-4-phenylthiazol-5-yl)oxy)pyridin-2-yl)amino)benzoic acid]	< 100	> 100
CNc1nc(-c2ccccc2)c(Oc2ccnc(Nc3cccc(C(C)(C)O)c3)c2)s1 [A-50, 2-(3-((4-((2-(Methylamino)-4-phenylthiazol-5-yl)oxy)pyridin-2-yl)amino)phenyl)propan-2-ol]	< 100	> 100
CNc1nc(-c2ccccc2)c(Oc2ccnc(Nc3cccc(S(N)(=O)=O)c3)c2)s1 [A-51, 3-((4-((2-(Methylamino)-4-phenylthiazol-5-yl)oxy)pyridin-2-yl)amino)benzenesulfonamide]	< 100	< 100
CNc1nc(-c2ccccc2)c(Oc2ccnc(Nc3cccc(C(N)=O)c3)c2)s1 [A-52, 3-((4-((2-(Methylamino)-4-phenylthiazol-5-yl)oxy)pyridin-2-yl)amino)benzamide]	< 100	> 100
CNc1nc(-c2ccccc2)c(Oc2ccnc(Nc3ccc(C(C)(C)O)nc3)c2)s1 [A-55, 2-(5-((4-((2-(Methylamino)-4-phenylthiazol-5-yl)oxy)pyridin-2-yl)amino)pyridin-2-yl)propan-2-ol]	< 100	
CNc1nc(-c2ccccc2)c(Oc2ccnc(Nc3ccc(C(=O)O)cc3)c2)s1 [A-56, 4-((4-((2-(Methylamino)-4-phenylthiazol-5-yl)oxy)pyridin-2-yl)amino)benzoic acid]	< 100	> 100
CNc1nc(-c2ccccc2)c(Oc2ccnc(Nc3cccc(C(=O)O)c3)c2)s1 [A-57, 3-((4-((2-(Methylamino)-4-phenylthiazol-5-yl)oxy)pyridin-2-yl)amino)benzoic acid]	< 100	> 100
Cc1nc(-c2ccccc2)c(Oc2ccnc(Nc3cccc(S(N)(=O)=O)c3)c2)s1 [A-58, 3-((4-((2-Methyl-4-phenylthiazol-5-yl)oxy)pyridin-2-yl)amino)benzenesulfonamide]	< 100	< 100
Cc1nc(-c2ccccc2)c(Oc2ccnc(Nc3ccnc(C(C)(C)O)c3)c2)s1 [A-59, 2-(4-((4-((2-Methyl-4-phenylthiazol-5-yl)oxy)pyridin-2-yl)amino)pyridin-2-yl)propan-2-ol]	< 100	> 100
NC(=O)c1ccc(Nc2cc(Oc3sc(C4CCCC4)nc3-c3ccccc3)ccn2)nc1 [A-173, 6-((4-((2-Cyclopentyl-4-phenylthiazol-5-yl)oxy)pyridin-2-yl)amino)nicotinamide]	> 100	
Cc1cccc(-c2nc(N)sc2Oc2ccnc(Nc3cccc(S(N)(=O)=O)c3)c2)n1 [A-247, 3-((4-((2-Amino-4-(6-methylpyridin-2-yl)thiazol-5-yl)oxy)pyridin-2-yl)amino)benzenesulfonamide]	< 100	
